Results published in US20260297080A1, “BICYCLIC COMPOUNDS AS CDK INHIBITORS” (BeOne Medicines I GmbH, priority 2022, published 2026).

Experiments:
CDK2/Cyclin E1 = CDK2/Cyclin E1 (Homo sapiens, UniProt P24941); assay: CDK2/Cyclin E1 Biochemical Assay (TR-FRET), 0.060 mM ATP; conditions: 0.15 μM Rb (Ser780)-biotin substrate, pH7.0, 60 min preincubation, 120 min reaction, room temperature
Procedure, shortened: (§1)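 Percent inhibition was derived from the 665 nm/620 nm TR-FRET ratio after a 120-minute room-temperature reaction on 0.15 μM Rb (Ser780)-biotin, preceded by 60-minute enzyme–compound preincubation. IC50 came from four-parameter logistic fitting.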

CDK1/Cyclin B1 = CDK1/Cyclin B1 (Homo sapiens, UniProt P06493); assay: CDK1/Cyclin B1 Biochemical Assay (TR-FRET), 0.015 mM ATP; conditions: 0.15 μM Rb (Ser780)-biotin substrate, pH7.0, 60 min preincubation, 120 min reaction, room temperature
Procedure, shortened: as §1

Chain of CDK1/Cyclin B1 (P06493 whole entry): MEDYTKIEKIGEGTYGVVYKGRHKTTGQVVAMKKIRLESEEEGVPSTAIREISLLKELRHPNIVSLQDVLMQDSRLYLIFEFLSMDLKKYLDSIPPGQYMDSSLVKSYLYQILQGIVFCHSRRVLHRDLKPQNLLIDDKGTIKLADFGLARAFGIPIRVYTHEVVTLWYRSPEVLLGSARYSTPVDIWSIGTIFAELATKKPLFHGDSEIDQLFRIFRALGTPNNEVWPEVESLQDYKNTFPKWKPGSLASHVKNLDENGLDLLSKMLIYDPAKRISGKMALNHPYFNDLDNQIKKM
Chain of CDK1/Cyclin B1 (P14635 whole entry partner): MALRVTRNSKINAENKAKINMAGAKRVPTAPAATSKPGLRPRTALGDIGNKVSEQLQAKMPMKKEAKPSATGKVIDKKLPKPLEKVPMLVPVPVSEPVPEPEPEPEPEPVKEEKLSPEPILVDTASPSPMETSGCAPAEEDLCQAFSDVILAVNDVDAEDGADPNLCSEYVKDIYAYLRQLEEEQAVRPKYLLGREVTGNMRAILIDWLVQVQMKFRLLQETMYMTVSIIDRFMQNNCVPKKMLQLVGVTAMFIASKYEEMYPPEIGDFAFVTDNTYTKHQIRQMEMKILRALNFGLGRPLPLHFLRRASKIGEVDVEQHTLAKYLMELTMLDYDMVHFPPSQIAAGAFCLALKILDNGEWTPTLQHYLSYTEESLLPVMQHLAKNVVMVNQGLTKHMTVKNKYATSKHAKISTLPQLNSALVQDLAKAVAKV

| IC50 (CDK2/Cyclin E1) [nM] | IC50 (CDK1/Cyclin B1) [nM] | Compound |
| --- | --- | --- |
| 2.3 | 71 | CN1c2ccc(Nc3cc([C@@H]4CC[C@H](OC(=O)NC(C)(C)CO)C4)[nH]n3)cc2CS1(=O)=O (single isomer, unassigned) [Example 325b, cis-3-(3-((1-methyl-2,2-dioxido-1,3-dihydrobenzo[c]isothiazol-5-yl)amino)-1H-pyrazol-5-yl)cyclopentyl(1-hydroxy-2-methylpropan-2-yl)carbamate] |
| 33 | 958 | CC(C)NC(=O)O[C@H]1CC[C@@H](c2cc(Nc3cc4c(cc3Cl)S(=O)(=O)NC4)n[nH]2)C1 (relative stereo) [Example 27, cis-3-(3-((6-chloro-1,1-dioxido-2,3-dihydrobenzo[d]isothiazol-5-yl)amino)-1H-pyrazol-5-yl)cyclopentyl isopropylcarbamate] |
| 3.3 | 248 | COCC1(NC(=O)O[C@H]2CC[C@@H](c3cc(Nc4ccc5c(c4F)CNS5(=O)=O)n[nH]3)C2)CC1 (single isomer, unassigned) [Example 158b, cis-3-(3-((4-fluoro-1,1-dioxido-2,3-dihydrobenzo[d]isothiazol-5-yl)amino)-1H-pyrazol-5-yl)cyclopentyl(1-(methoxymethyl)cyclopropyl)carbamate] |
| 3.5 | 412 | CC(NC(=O)O[C@H]1CC[C@@H](c2cc(Nc3cc4c(cc3F)S(=O)(=O)NC4)n[nH]2)C1)C1CC1 (relative stereo) [Example 413, cis-3-(3-((6-fluoro-1,1-dioxido-2,3-dihydrobenzo[d]isothiazol-5-yl)amino)-1H-pyrazol-5-yl)cyclopentyl(1-cyclopropylethyl)carbamate] |
| 1.1 | 130 | CC[C@H](C)NC(=O)O[C@H]1CC[C@@H](c2cc(Nc3cc4c(cc3F)S(=O)(=O)NC4)n[nH]2)C1 (relative stereo) [Example 43, cis-3-(3-((6-fluoro-1,1-dioxido-2,3-dihydrobenzo[d]isothiazol-5-yl)amino)-1H-pyrazol-5-yl)cyclopentyl((S)-sec-butyl)carbamate] |
| 5.7 | 241 | [2H]C([2H])([2H])N1Cc2c(ccc(Nc3cc([C@@H]4CC[C@H](OC(=O)NCCC)C4)[nH]n3)c2F)S1(=O)=O (relative stereo) [Example 130, cis-3-(3-((4-fluoro-2-(methyl-d3)-1,1-dioxido-2,3-dihydrobenzo[d]isothiazol-5-yl)amino)-1H-pyrazol-5-yl)cyclopentyl propylcarbamate] |
| 2.6 | 35 | CC(C)NC(=O)O[C@H]1CC[C@@H](c2cc(Nc3ccc4c(c3)CS(=O)(=O)N4C)n[nH]2)C1 (single isomer, unassigned) [Example 220b] |
| 1 | 22 | CC1(NC(=O)O[C@H]2CC[C@@H](c3cc(Nc4ccc5c(c4F)CS(=O)(=O)N5CCO)n[nH]3)C2)CC1 (relative stereo) [Example 274, cis-3-(3-((4-fluoro-1-(2-hydroxyethyl)-2,2-dioxido-1,3-dihydrobenzo[c]isothiazol-5-yl)amino)-1H-pyrazol-5-yl)cyclopentyl(1-methylcyclopropyl)carbamate] |
| 9.8 | 78 | CN1c2ccc(Nc3cc([C@@H]4CC[C@H](OC(=O)NCCC(F)(F)F)C4)[nH]n3)cc2CS1(=O)=O (relative stereo) [Example 230, cis-3-(3-((1-methyl-2,2-dioxido-1,3-dihydrobenzo[c]isothiazol-5-yl)amino)-1H-pyrazol-5-yl)cyclopentyl(3,3,3-trifluoropropyl)carbamate] |
| 5.2 | 449 | CC(C)NC(=O)O[C@H]1CC[C@@H](c2cc(Nc3ccc4c(c3F)CN(CC3COC3)S4(=O)=O)n[nH]2)C1 (relative stereo) [Example 97, cis-3-(3-((4-fluoro-2-(oxetan-3-ylmethyl)-1,1-dioxido-2,3-dihydrobenzo[d]isothiazol-5-yl)amino)-1H-pyrazol-5-yl)cyclopentyl isopropylcarbamate] |
| 4.3 | 47 | CN1c2ccc(Nc3cc([C@@H]4CC[C@H](OC(=O)NC5CCC56CC6)C4)[nH]n3)cc2CS1(=O)=O (relative stereo) [Example 196, cis-3-(3-((1-methyl-2,2-dioxido-1,3-dihydrobenzo[c]isothiazol-5-yl)amino)-1H-pyrazol-5-yl)cyclopentyl spiro[2.3]hexan-4-ylcarbamate] |
| 8.4 | 689 | CC(C)NC(=O)O[C@H]1CC[C@@H](c2cc(Nc3ccc4c(c3F)CN(CC3CNC3)S4(=O)=O)n[nH]2)C1 (relative stereo) [Example 105, cis-3-(3-((2-(azetidin-3-ylmethyl)-4-fluoro-1,1-dioxido-2,3-dihydrobenzo[d]isothiazol-5-yl)amino)-1H-pyrazol-5-yl)cyclopentyl isopropylcarbamate] |
| 3.5 | 274 | CC1NS(=O)(=O)c2ccc(Nc3cc([C@@H]4CC[C@H](OC(=O)NC5(C)CC5)C4)[nH]n3)c(F)c21 (single isomer, unassigned) [Example 52a, cis-3-(3-((4-fluoro-3-methyl-1,1-dioxido-2,3-dihydrobenzo[d]isothiazol-5-yl)amino)-1H-pyrazol-5-yl)cyclopentyl(1-methylcyclopropyl)carbamate] |
| 16 | 962 | CC(C)NC(=O)O[C@H]1CC[C@@H](c2cc(Nc3ccc4c(c3F)CN(CCN(C)C)S4(=O)=O)n[nH]2)C1 (relative stereo) [Example 74, cis-3-(3-((2-(2-(dimethylamino)ethyl)-4-fluoro-1,1-dioxido-2,3-dihydrobenzo[d]isothiazol-5-yl)amino-1H-pyrazol-5-yl)cyclopentyl isopropylcarbamate] |
| 0.7 | 5.6 | CC1NS(=O)(=O)c2ccc(Nc3cc([C@@H]4CC[C@H](OC(=O)NC5(C)CC5)C4)[nH]n3)cc21 (single isomer, unassigned) [Example 322d, cis-3-(3-((3-methyl-1,1-dioxido-2,3-dihydrobenzo[d]isothiazol-5-yl)amino)-1H-pyrazol-5-yl)cyclopentyl(1-methylcyclopropyl)carbamate] |
| 48 | 1080 | CC[C@H](C)NC(=O)O[C@H]1CC[C@@H](c2cc(Nc3ccc4c(c3F)C(C)(C)NS4(=O)=O)n[nH]2)C1 (relative stereo) [Example 57, cis-3-(3-((4-fluoro-3,3-dimethyl-1,1-dioxido-2,3-dihydrobenzo[d]isothiazol-5-yl)amino)-1H-pyrazol-5-yl)cyclopentyl((S)-sec-butyl)carbamate] |
| 1.9 | 138 | O=C(NC1(CO)CCC1)O[C@H]1CC[C@@H](c2cc(Nc3ccc4c(c3F)CNS4(=O)=O)n[nH]2)C1 (relative stereo) [Example 385, cis-3-(3-((4-fluoro-1,1-dioxido-2,3-dihydrobenzo[d]isothiazol-5-yl)amino)-1H-pyrazol-5-yl)cyclopentyl(1-(hydroxymethyl)cyclobutyl)carbamate] |
| 26 | 390 | CCCNC(=O)O[C@H]1CC[C@@H](c2cc(Nc3ccc4c(c3Cl)CNS4(=O)=O)n[nH]2)C1 (single isomer, unassigned) [Example 39b, cis-3-(3-((4-chloro-1,1-dioxido-2,3-dihydrobenzo[d]isothiazol-5-yl)amino)-1H-pyrazol-5-yl)cyclopentyl propylcarbamate] |
| 14 | 458 | CC(C)(C)NC(=O)O[C@H]1CC[C@@H](c2cc(Nc3cc4c(cc3F)NS(=O)(=O)C4)n[nH]2)C1 [Example 404b] |
| 5 | 111 | CCCNC(=O)O[C@H]1CC[C@@H](c2cc(Nc3ccc4c(c3F)CS(=O)(=O)N4C3CC3)n[nH]2)C1 (relative stereo) [Example 276, cis-3-(3-((1-cyclopropyl-4-fluoro-2,2-dioxido-1,3-dihydrobenzo[c]isothiazol-5-yl)amino)-1H-pyrazol-5-yl)cyclopentyl propylcarbamate] |
| 15 | 800 | CC(C)NC(=O)O[C@H]1CC[C@@H](c2cc(Nc3cc4c(cc3F)N(CCO)S(=O)(=O)C4)n[nH]2)C1 (single isomer, unassigned) [Example 296a, cis-3-(3-((6-fluoro-1-(2-hydroxyethyl)-2,2-dioxido-1,3-dihydrobenzo[c]isothiazol-5-yl)amino)-1H-pyrazol-5-yl)cyclopentyl isopropylcarbamate] |
| 6.2 | 98 | CC(C)NC(=O)O[C@H]1CC[C@@H](c2cc(Nc3ccc4c(c3)CS(=O)(=O)N4C(C)C)n[nH]2)C1 (relative stereo) [Example 202, cis-3-(3-((1-isopropyl-2,2-dioxido-1,3-dihydrobenzo[c]isothiazol-5-yl)amino)-1H-pyrazol-5-yl)cyclopentyl isopropylcarbamate] |
| 7.8 | 142 | [2H]C([2H])([2H])N1c2ccc(Nc3cc([C@@H]4CC[C@H](OC(=O)NC(C)C)C4)[nH]n3)c(F)c2CS1(=O)=O (single isomer, unassigned) [Example 267a, cis-3-(3-((4-fluoro-1-(methyl-d3)-2,2-dioxido-1,3-dihydrobenzo[c]isothiazol-5-yl)amino)-1H-pyrazol-5-yl)cyclopentyl isopropylcarbamate] |
| 601 | > 10000 | CC(C)NC(=O)O[C@H]1CC[C@@H](c2cc(Nc3c(F)cc4c(c3O)CNS4(=O)=O)n[nH]2)C1 (relative stereo) [Example 406, cis-3-(3-((6-fluoro-4-hydroxy-1,1-dioxido-2,3-dihydrobenzo[d]isothiazol-5-yl)amino)-1H-pyrazol-5-yl)cyclopentyl isopropylcarbamate] |
